Article PMC4457528, “Identification of Novel Small Molecule Inhibitors of Oncogenic RET Kinase” (PLoS ONE, 2015)
Read-outs that look alike come from different tables or passages of the source.

Assays:
KinomeScan kinase panel [1] = target: T1, KinomeScan kinase panel (Homo sapiens, UniProt P09619); assay: KinomeScan kinase panel, single concentration 10 µM; type: binding; settings: PDGFRB, 10 µM; read-out: score (%)
T1 construct: purchased DiscoveRx (KinomeScan)

KinomeScan kinase panel [2] = target: T2, KinomeScan kinase panel (Homo sapiens, UniProt Q9UF33); assay: as above; type: binding; settings: EPHA6, 10 µM; read-out: score (%)
T2 construct: purchased DiscoveRx (KinomeScan)
T2 sequence (Q9UF33 23-1036): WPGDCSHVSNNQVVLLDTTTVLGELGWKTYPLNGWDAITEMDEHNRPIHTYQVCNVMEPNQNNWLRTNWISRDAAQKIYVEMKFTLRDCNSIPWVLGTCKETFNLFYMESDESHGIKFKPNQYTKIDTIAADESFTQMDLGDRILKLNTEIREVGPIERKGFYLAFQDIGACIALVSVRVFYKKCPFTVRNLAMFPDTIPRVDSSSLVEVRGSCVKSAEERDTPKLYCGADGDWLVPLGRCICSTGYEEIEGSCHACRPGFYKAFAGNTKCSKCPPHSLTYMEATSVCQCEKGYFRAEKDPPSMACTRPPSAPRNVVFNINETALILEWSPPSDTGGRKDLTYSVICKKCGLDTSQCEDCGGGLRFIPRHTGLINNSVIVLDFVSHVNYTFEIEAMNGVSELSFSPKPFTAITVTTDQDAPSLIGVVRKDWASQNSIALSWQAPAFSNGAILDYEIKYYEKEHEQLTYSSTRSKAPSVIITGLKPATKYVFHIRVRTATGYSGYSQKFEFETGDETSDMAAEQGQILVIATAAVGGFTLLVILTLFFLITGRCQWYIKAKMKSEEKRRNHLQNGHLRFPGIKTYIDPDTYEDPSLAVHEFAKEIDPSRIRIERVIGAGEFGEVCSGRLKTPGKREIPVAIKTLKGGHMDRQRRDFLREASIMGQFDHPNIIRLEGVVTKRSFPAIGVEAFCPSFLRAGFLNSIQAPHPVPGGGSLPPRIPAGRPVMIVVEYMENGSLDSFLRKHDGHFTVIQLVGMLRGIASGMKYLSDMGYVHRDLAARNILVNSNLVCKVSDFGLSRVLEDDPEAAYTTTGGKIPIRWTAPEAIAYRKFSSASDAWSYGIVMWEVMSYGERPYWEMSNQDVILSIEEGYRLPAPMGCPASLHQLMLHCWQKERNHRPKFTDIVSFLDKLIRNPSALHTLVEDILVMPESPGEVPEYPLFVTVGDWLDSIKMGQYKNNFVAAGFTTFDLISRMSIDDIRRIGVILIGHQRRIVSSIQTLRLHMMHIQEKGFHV

KinomeScan kinase panel [3] = target: T3, KinomeScan kinase panel (Homo sapiens, UniProt P00519, F317I); assay: as above; type: binding; settings: 10 µM, read-out: score (%)
T3 construct: purchased DiscoveRx (KinomeScan)

KinomeScan kinase panel [4] = target: T4, KinomeScan kinase panel (Homo sapiens, UniProt Q9P0L2); assay: as above; type: binding; settings: MARK1, 10 µM; read-out: score (%)
T4 construct: purchased DiscoveRx (KinomeScan)

RET/C634Y = settings: 10 nM, 2 hr, NIH3T3, Western blotting, data not shown
TT cells = assay: Growth curves, TT medullary thyroid carcinoma cells (RET/C634W); type: cell-based; settings: Homo sapiens, 20% serum, 95% CI in brackets, read-out: Growth inhibition IC50 dose TT
Procedure: (§1) TT human cell line was obtained in 2002 from ATCC and authenticated by RET genotyping; it was derived from a MTC and harbors a cysteine 634 to tryptophan (C634W) RET mutation. TT cells were grown in RPMI 1640 supplemented with 20% fetal calf serum (GIBCO). MZ-CRC-1 human cells were kindly provided in 2009 by Robert F. Gagel (MD Anderson, Houston, TX) and authenticated by RET genotyping. […] Nthy-ori 3–1, a human thyroid follicular epithelial cell line immortalized by the SV40 large T gene, was obtained from European Collection of Cell Cultures (ECACC) (Wiltshire, UK) in 2010.
(§2) To compare cell growth, we performed unpaired Student’s t test using the Instat software program (Graphpad Software Inc). P values were two-sided, and differences were considered statistically significant at P <.02. IC50 doses were calculated through a curve fitting analysis from last day values using the PRISM software program (Graphpad Software Inc).

TPC-1 cells = assay: Growth curves, TPC-1 papillary thyroid carcinoma cells (RET/PTC1); type: cell-based; settings: Homo sapiens, TPC1; 2% serum; 95% CI in brackets; read-out: Growth inhibition IC50 dose TPC-1
Procedure: as §1, §2

[5] = test system: SHC and MAPK phosphorylation in Nthy-ori-3-1 cells; assay: Western blot of SHC and MAPK phosphorylation in Nthy-ori-3-1 cells; type: cell-based, human; settings: 10, 100 and 1,000 nM, 2 hr
Procedure: Protein lysates were prepared according to standard procedures. Briefly, cells were lysed in a buffer containing 50 mM N-2-hydroxyethylpiperazine-N'-2-ethanesulfonic acid (HEPES; pH 7.5), 1% (vol/vol) Triton X-100, 150 mM NaCl, 5 mM EGTA, 50 mM NaF, 20 mM sodium pyrophosphate, 1 mM sodium vanadate, 2 mM phenylmethylsulphonyl fluoride (PMSF) and 1 μg/ml aprotinin. Lysates were clarified by centrifugation at 10,000 Xg for 15 min. […] Immune complexes were detected with the enhanced chemiluminescence kit (Amersham Pharmacia Biotech, Little Chalfort, UK). Signal intensity was analyzed at the Phosphorimager (Typhoon 8600, Amersham Pharmacia Biotech) interfaced with the ImageQuant software. Anti-phospho-SHC (#07206), that recognizes SHC proteins when phosphorylated on Y317 was from Merck Millipore (Darmstadt, Germany). Anti-MAPK (#4695) and anti-phospho-MAPK (#4370), specific for p44/42MAPK (ERK1/2) phosphorylated on Thr202/Tyr204, anti-VEGFRII (#2479) and anti-phospho-VEGFRII (#2478), that recognizes VEGF Receptor 2 when phosphorylated on Y1175, were from Cell Signaling (Beverly, MA).
Anti-SHC (#H-108) was from Santa Cruz Biotechnology (Santa Cruz, CA). Anti-RET is a polyclonal antibody raised against the tyrosine kinase protein fragment of human RET [28]. Anti-phospho905 is a phospho-specific polyclonal antibody recognizing RET proteins phosphorylated at Y905 and anti-phospho1062 is a phospho-specific polyclonal antibody recognizing RET proteins phosphorylated at Y1062 [13]. Secondary antibodies coupled to horseradish peroxidase were from Santa Cruz Biotechnology.
We selected TT and MZ-CRC-1 cells, that derive from human MTC harbouring the RET/C634W or RET/M918T mutation, respectively, and TPC1 cells, that derive from human PTC bearing the RET/PTC1 (CCDC6-RET) rearrangement. […] Concentrations as low at 10 nM of all three drugs inhibited RET autophosphorylation as well as SHC and MAPK activation by 20–40% of control (Fig 4A–4C). […]

T4 sequence (Q9P0L2 whole entry): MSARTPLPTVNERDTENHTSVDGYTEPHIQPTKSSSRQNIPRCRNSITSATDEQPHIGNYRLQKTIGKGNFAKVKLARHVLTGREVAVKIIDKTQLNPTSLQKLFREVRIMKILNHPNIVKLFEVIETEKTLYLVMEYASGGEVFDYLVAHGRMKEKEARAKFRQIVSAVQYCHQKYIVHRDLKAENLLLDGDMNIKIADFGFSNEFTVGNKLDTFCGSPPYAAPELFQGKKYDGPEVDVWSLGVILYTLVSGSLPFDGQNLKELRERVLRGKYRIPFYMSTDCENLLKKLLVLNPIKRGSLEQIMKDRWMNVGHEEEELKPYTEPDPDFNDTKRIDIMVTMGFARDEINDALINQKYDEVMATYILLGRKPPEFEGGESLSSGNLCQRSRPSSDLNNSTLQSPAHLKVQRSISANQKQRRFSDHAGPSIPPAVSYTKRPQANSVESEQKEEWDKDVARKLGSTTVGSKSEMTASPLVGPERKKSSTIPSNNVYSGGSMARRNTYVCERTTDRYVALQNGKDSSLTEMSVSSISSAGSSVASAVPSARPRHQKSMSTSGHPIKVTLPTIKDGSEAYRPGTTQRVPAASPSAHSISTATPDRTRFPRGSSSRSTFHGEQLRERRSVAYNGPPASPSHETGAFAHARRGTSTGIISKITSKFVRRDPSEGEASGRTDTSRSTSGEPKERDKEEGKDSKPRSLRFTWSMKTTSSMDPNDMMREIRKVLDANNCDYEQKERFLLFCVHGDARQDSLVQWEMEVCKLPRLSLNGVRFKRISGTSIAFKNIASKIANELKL
T3 sequence (P00519 whole entry F317I): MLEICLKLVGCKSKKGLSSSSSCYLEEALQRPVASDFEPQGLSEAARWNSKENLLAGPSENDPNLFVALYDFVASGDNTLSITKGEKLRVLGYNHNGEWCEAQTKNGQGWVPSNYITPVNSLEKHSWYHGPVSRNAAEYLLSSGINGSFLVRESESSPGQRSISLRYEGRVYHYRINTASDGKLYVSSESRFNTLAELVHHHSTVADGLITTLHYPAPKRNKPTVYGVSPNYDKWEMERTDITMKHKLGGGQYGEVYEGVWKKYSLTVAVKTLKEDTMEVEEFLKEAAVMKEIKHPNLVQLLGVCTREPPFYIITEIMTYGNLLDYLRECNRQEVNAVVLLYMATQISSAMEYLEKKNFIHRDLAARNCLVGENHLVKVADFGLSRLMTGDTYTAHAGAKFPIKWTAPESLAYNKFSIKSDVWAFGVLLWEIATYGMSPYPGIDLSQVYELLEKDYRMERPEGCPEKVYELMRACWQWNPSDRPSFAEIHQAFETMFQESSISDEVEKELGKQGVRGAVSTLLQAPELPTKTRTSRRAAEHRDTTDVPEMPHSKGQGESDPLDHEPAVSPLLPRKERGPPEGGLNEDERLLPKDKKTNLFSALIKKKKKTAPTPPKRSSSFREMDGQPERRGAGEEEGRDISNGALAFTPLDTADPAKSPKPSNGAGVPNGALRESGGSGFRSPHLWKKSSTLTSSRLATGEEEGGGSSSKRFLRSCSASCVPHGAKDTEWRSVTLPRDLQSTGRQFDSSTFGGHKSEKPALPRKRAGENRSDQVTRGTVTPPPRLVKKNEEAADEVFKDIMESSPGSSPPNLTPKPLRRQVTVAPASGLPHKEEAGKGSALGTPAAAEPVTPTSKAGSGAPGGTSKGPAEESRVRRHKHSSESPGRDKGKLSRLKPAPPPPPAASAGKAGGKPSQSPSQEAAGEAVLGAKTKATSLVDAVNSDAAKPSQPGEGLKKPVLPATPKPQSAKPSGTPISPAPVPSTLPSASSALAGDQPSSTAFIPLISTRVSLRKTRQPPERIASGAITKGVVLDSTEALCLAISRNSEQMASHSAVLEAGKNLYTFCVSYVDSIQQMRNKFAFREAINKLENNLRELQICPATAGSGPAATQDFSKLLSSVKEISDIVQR
T1 sequence (P09619 33-1106): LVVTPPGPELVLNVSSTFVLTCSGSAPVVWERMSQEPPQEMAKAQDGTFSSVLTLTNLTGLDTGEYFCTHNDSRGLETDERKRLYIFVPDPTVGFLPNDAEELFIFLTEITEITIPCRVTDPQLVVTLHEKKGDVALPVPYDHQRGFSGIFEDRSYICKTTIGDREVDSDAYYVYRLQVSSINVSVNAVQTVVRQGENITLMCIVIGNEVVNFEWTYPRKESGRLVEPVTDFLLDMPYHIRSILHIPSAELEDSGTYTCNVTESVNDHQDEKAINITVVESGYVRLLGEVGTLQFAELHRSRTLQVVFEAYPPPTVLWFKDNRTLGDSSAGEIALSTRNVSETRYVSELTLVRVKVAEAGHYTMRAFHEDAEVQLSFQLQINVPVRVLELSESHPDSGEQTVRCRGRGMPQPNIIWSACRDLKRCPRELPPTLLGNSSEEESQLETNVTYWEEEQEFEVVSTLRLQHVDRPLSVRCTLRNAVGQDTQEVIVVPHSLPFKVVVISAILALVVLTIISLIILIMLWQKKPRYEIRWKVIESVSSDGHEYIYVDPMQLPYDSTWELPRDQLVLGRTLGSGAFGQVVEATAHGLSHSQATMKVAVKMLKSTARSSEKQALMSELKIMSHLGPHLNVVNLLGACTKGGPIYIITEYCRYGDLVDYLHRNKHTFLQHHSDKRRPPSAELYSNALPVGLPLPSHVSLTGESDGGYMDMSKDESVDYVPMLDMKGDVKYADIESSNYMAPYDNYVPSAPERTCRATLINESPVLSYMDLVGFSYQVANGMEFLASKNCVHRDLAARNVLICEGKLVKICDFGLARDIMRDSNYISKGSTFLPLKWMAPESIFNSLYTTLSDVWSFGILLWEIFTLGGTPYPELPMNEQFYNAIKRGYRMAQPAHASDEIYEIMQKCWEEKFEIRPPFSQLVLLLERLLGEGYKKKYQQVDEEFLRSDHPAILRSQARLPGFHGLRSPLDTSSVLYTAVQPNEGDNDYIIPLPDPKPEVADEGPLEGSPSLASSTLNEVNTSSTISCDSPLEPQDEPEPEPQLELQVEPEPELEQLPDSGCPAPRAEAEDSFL

Compound | remaining binding at 10 µM (KinomeScan kinase panel [1]) | remaining binding at 10 µM (KinomeScan kinase panel [2]) | remaining binding at 10 µM (KinomeScan kinase panel [3]; ABL1(F317I)) | remaining binding at 10 µM (KinomeScan kinase panel [4]) | inhibition of RET/C634Y protein (RET/C634Y) | IC50 (TT cells) | IC50 (TPC-1 cells) | effect on SHC and MAPK phosphorylation in Nthy-ori-3-1 cells [5] | remaining binding at 10 µM (KinomeScan kinase panel [3]; ABL1(F317I)-nonphosphorylated) | remaining binding at 10 µM (KinomeScan kinase panel [3]; ABL1(F317I)-phosphorylated)
CCN1CCN(Cc2ccc(NC(=O)c3ccc(C)c(NC(=O)c4cncc(-c5cccs5)c4)c3)cc2C(F)(F)F)CC1 [ALW-II-41-27] | 0% | 28% | 0.2% | > 30% | > 30% | 5.7 nM | 19.7 nM | did not exert any detectable effects |  | 
CCN1CCN(Cc2ccc(NC(=O)c3ccc(C)c(/C=C/c4cnc5[nH]ccc5c4Cl)c3)cc2C(F)(F)F)CC1 [HG-6-63-01, (E)-3-(2-(4-chloro-1H-pyrrolo[2,3-b]pyridin-5-yl)vinyl)-N-(4-((4-ethylpiperazin-1-yl)methyl)-3-(trifluoromethyl)phenyl)-4-methylbenzamide] | 0% | 6.7% | 0.05% | > 30% | > 30% | 2.3 nM | 9.8 nM | did not exert any detectable effects |  | 
CCN1CCN(Cc2ccc(NC(=O)c3ccc(C)c(C#Cc4cccnc4)c3)cc2C(F)(F)F)CC1 [XMD15-44] | 0% | 0% |  | > 30% | > 30% | 1.5 nM | 37.1 nM | did not exert any detectable effects | 8.8% | 4%
